# Test results published in ChEMBL document CHEMBL1255340, “In vitro activities of the Rx-01 oxazolidinones against hospital and community pathogens” (2008).
# Several values for one entry are separate records, joined by “and”; a condition that tells them apart may be missing. Equal values may be shown once.
# Tests used:
# Format in all cases: functional
# Streptococcus pneumoniae [1] = experiment: Antimicrobial activity against Streptococcus pneumoniae 02J1175
# Enterococcus faecalis [2] = experiment: Antimicrobial activity against vancomycin-resistant Enterococcus faecalis 03B1069
# Enterococcus faecalis [3] = experiment: Antimicrobial activity against Enterococcus faecalis A5962
# Enterococcus faecalis [4] = experiment: Antimicrobial activity against Enterococcus faecalis ATCC 29212-P5 harboring G2576U mutation in 23S rRNA
# Enterococcus faecalis [5] = experiment: Antimicrobial activity against Enterococcus faecalis A7789
# Staphylococcus capitis = experiment: Antimicrobial activity against Staphylococcus capitis A8935
# Enterococcus faecalis [6] = experiment: Antimicrobial activity against vancomycin-resistant Enterococcus faecalis nosocomial isolate
# Enterococcus faecalis [7] = experiment: Antimicrobial activity against Enterococcus faecalis A6350
# Streptococcus pneumoniae [8] = experiment: Antimicrobial activity against Streptococcus pneumoniae PU1071099 harboring 65WR66 deletion in ribosomal protein L4 by broth microdilution method
# Streptococcus pneumoniae [9] = experiment: Antimicrobial activity against Streptococcus pneumoniae 02J1258
# Enterococcus faecalis [10] = experiment: Antimicrobial activity against Enterococcus faecalis ATCC 29212
# Enterococcus faecium [11] = experiment: Antimicrobial activity against vancomycin-resistant Enterococcus faecium nosocomial isolate
# Staphylococcus hominis = experiment: Antimicrobial activity against Staphylococcus hominis A7828
# Streptococcus pyogenes [12] = experiment: Antimicrobial activity against Streptococcus pyogenes harboring mef(A) gene
# Enterococcus faecium [13] = experiment: Antimicrobial activity against Enterococcus faecium A5960
# Staphylococcus aureus [14] = experiment: Antimicrobial activity against Staphylococcus aureus A8831 harboring U2500A mutation in 23S rRNA
# Enterococcus faecium [15] = experiment: Antimicrobial activity against Enterococcus faecium A5959
# Chlamydia pneumoniae = experiment: Antimicrobial activity against Chlamydophila pneumoniae isolated from human respiratory tract by broth microdilution method
# Staphylococcus aureus [16] = experiment: Antimicrobial activity against Staphylococcus aureus pLXM1 harboring cfr gene
# Enterococcus faecium [17] = experiment: Antimicrobial activity against Enterococcus faecium A9650
# Staphylococcus aureus [18] = experiment: Antimicrobial activity against Staphylococcus aureus A8833 harboring U2500A mutation in 23S rRNA
# Enterococcus faecium [19] = experiment: Antimicrobial activity against Enterococcus faecium A6348 harboring G2576U mutation in 23S rRNA
# Legionella pneumophila = experiment: Antimicrobial activity against Legionella pneumophila isolated from human respiratory tract by broth microdilution method
# Haemophilus influenzae [20] = experiment: Antimicrobial activity against Haemophilus influenzae A1950
# Staphylococcus aureus [21] = experiment: Antimicrobial activity against Staphylococcus aureus A7820
# Staphylococcus aureus [22] = experiment: Antimicrobial activity against Staphylococcus aureus A8761
# Enterococcus faecium [23] = experiment: Antimicrobial activity against Enterococcus faecium A6349 harboring G2576U mutation in 23S rRNA
# Enterococcus faecium [24] = experiment: Antimicrobial activity against Enterococcus faecium A9621 by broth microdilution method
# Staphylococcus aureus [25] = experiment: Antimicrobial activity against Staphylococcus aureus A8727
# Staphylococcus aureus [26] = experiment: Antimicrobial activity against Staphylococcus aureus A7817
# Enterococcus faecium [27] = experiment: Antimicrobial activity against Enterococcus faecium A6349
# Staphylococcus aureus [28] = experiment: Antimicrobial activity against Staphylococcus aureus A7819 harboring G2576U mutation in 23S rRNA
# Enterococcus faecium [29] = experiment: Antimicrobial activity against Enterococcus faecium A8767
# [30] = tested on: Staphylococcus epidermidis; experiment: Antimicrobial activity against Staphylococcus epidermidis A8934
# Enterococcus faecalis [31] = experiment: Antimicrobial activity against Enterococcus faecalis A6343
# Enterococcus faecium [32] = experiment: Antimicrobial activity against Enterococcus faecium A6345
# Enterococcus faecium [33] = experiment: Antimicrobial activity against Enterococcus faecium A8130
# Chlamydia trachomatis = experiment: Antimicrobial activity against Chlamydia trachomatis isolated from human respiratory tract by broth microdilution method
# Enterococcus faecium [34] = experiment: Antimicrobial activity against Enterococcus faecium A8948
# Streptococcus pyogenes [35] = experiment: Antimicrobial activity against Streptococcus pyogenes
# Enterococcus faecium [36] = experiment: Antimicrobial activity against vancomycin-susceptible Enterococcus faecium nosocomial isolate by broth microdilution method
# Haemophilus influenzae [37] = experiment: Antimicrobial activity against Haemophilus influenzae 54A1100
# [38] = Enterococcus faecium, read-out: MIC
# [39] = Streptococcus pyogenes, read-out: MIC
smiles,measurement,setting,value
CN[C@H](CC(C)C)C(=O)N[C@H]1C(=O)N[C@@H](CC(N)=O)C(=O)N[C@H]2C(=O)N[C@H]3C(=O)N[C@H](C(=O)N[C@H](C(=O)O)c4cc(O)cc(O)c4-c4cc3ccc4O)[C@H](O)c3ccc(c(Cl)c3)Oc3cc2cc(c3O[C@@H]2O[C@H](CO)[C@@H](O)[C@H](O)[C@H]2O[C@H]2C[C@](C)(N)[C@H](O)[C@H](C)O2)Oc2ccc(cc2Cl)[C@H]1O [VANCOMYCIN],MIC,Streptococcus pneumoniae [1],0.25 µg/mL
same,MIC,Enterococcus faecalis [2],32 µg/mL
same,MIC,Enterococcus faecalis [3],8 µg/mL
same,MIC,Enterococcus faecalis [4],2 µg/mL
same,MIC,Enterococcus faecalis [5],1 µg/mL
same,MIC,Staphylococcus capitis,1 µg/mL
same,MIC,Enterococcus faecalis [6],>16 µg/mL
same,MIC,Enterococcus faecalis [7],1 µg/mL
same,MIC,Streptococcus pneumoniae [8],≤ 0.25 µg/mL
same,MIC,Streptococcus pneumoniae [9],0.125 µg/mL
same,MIC,Enterococcus faecalis [10],2 µg/mL
same,MIC,Enterococcus faecium [11]; [38],> 64 µg/mL
same,MIC,Staphylococcus hominis,2 µg/mL
CC(=O)NC[C@H]1CN(c2ccc(N3CCOCC3)c(F)c2)C(=O)O1 [LINEZOLID],MIC,Streptococcus pneumoniae [1],0.25 µg/mL
same,MIC,Streptococcus pyogenes [12],2 µg/mL and 4 µg/mL
same,MIC,Streptococcus pyogenes [12]; [39],2 µg/mL
same,MIC,Enterococcus faecium [13],64 µg/mL
same,MIC,Staphylococcus aureus [14],128 µg/mL
same,MIC,Enterococcus faecium [15],32 µg/mL
same,MIC,Chlamydia pneumoniae,1 µg/mL
same,MIC,Staphylococcus aureus [16],8 µg/mL
same,MIC,Enterococcus faecium [17],16 µg/mL
same,MIC,Enterococcus faecalis [3],32 µg/mL
same,MIC,Staphylococcus aureus [18],64 µg/mL
same,MIC,Enterococcus faecalis [4],32 µg/mL
same,MIC,Enterococcus faecium [19],64 µg/mL
same,MIC,Enterococcus faecalis [5],64 µg/mL
same,MIC,Legionella pneumophila,8 µg/mL
same,MIC,"Legionella pneumophila; Legionella pneumophila, read-out: MIC",4 µg/mL
same,MIC,Haemophilus influenzae [20],16 µg/mL
same,MIC,Staphylococcus aureus [21],64 µg/mL
same,MIC,Staphylococcus aureus [22],16 µg/mL
same,MIC,Staphylococcus capitis,16 µg/mL
same,MIC,Enterococcus faecium [23],16 µg/mL
same,MIC,Enterococcus faecium [24],64 µg/mL
same,MIC,Staphylococcus aureus [25],8 µg/mL
same,MIC,Staphylococcus aureus [26],64 µg/mL
same,MIC,Enterococcus faecium [27],16 µg/mL
same,MIC,Staphylococcus aureus [28],64 µg/mL
same,MIC,Enterococcus faecium [29],8 µg/mL
same,MIC,[30],32 µg/mL
same,MIC,Enterococcus faecalis [31],32 µg/mL
same,MIC,Enterococcus faecium [32],32 µg/mL
same,MIC,Enterococcus faecium [33],32 µg/mL
same,MIC,Enterococcus faecium [11],4 µg/mL
same,MIC,Enterococcus faecium [11]; [38],2 µg/mL
same,MIC,Chlamydia trachomatis,16 µg/mL
same,MIC,"Chlamydia trachomatis; Chlamydia trachomatis, read-out: MIC",8 µg/mL
same,MIC,Enterococcus faecium [34],8 µg/mL
same,MIC,Streptococcus pyogenes [35],2 µg/mL and 4 µg/mL
same,MIC,Streptococcus pyogenes [35]; [39],2 µg/mL
same,MIC,Enterococcus faecium [36],8 µg/mL
same,MIC,Enterococcus faecium [36]; [38],4 µg/mL
same,MIC,Haemophilus influenzae [37],16 µg/mL
same,MIC,Staphylococcus hominis,64 µg/mL
